Measured values published in ChEMBL document CHEMBL2046361, “Ianthelliformisamines A-C, antibacterial bromotyrosine-derived metabolites from the marine sponge Suberea ianthelliformis” (J Nat Prod, 2012).
Values after ≈ are worked out from the molar mass of the structure shown. Active and inactive are the calls of the source. The rule behind the calls is not given here.

What was measured:
Pseudomonas aeruginosa [1] = experiment: Antimicrobial activity against Pseudomonas aeruginosa PAO1 assessed as inhibition of cell viability at 350 uM after 18 hrs by spectrophotometry; assay type: functional, organism-based
Staphylococcus aureus [2] = experiment: Antimicrobial activity against Staphylococcus aureus 01A1095 assessed as inhibition of cell viability at 350 uM after 18 hrs by spectrophotometry; assay type: functional, organism-based
Pseudomonas aeruginosa [3] = experiment: Antimicrobial activity against Pseudomonas aeruginosa PAO1 assessed as inhibition of cell viability at 175 uM after 18 hrs by spectrophotometry; assay type: functional; details: PAO1, 18 h
Staphylococcus aureus [4] = experiment: Antimicrobial activity against Staphylococcus aureus 01A1095 assessed as inhibition of cell viability at 87.5 uM after 18 hrs by spectrophotometry; assay type: functional; details: 01A1095, 18 h
Pseudomonas aeruginosa [5] = experiment: Antimicrobial activity against Pseudomonas aeruginosa PAO1 assessed as inhibition of cell viability after 18 hrs by spectrophotometry; assay type: functional, organism-based; details: PAO1, 18 h
Staphylococcus aureus [6] = experiment: Antimicrobial activity against Staphylococcus aureus 01A1095 assessed as inhibition of cell viability after 18 hrs by spectrophotometry; assay type: functional, organism-based; details: 01A1095, 18 h
Staphylococcus aureus [7] = experiment: Antimicrobial activity against Staphylococcus aureus 01A1095 assessed as inhibition of cell viability at 175 uM after 18 hrs by spectrophotometry; assay type: functional; details: 01A1095, 18 h
Pseudomonas aeruginosa [8] = experiment: Antimicrobial activity against Pseudomonas aeruginosa PAO1 assessed as inhibition of cell viability at 87.5 uM after 18 hrs by spectrophotometry; assay type: functional; details: PAO1, 18 h

| SMILES | IC50 (Pseudomonas aeruginosa [5]) | IC50 (Staphylococcus aureus [6]) | MIC (Pseudomonas aeruginosa [5]) | further results |
| --- | --- | --- | --- | --- |
| CN(C)CCCOc1c(Br)cc(CCN(C)C)cc1Br | – | – | – | inhibition (Pseudomonas aeruginosa [1]): inactive; inhibition (Staphylococcus aureus [2]): inactive |
| COC1=C(Br)[C@H](O)[C@@]2(C=C1Br)CC(C(=O)NCCCOc1c(Br)cc(CCN)cc1Br)=NO2 [ARAPLYSILLIN I] | – | – | – | inhibition at 175 µM (Pseudomonas aeruginosa [3]): 65%; inhibition at 87.5 µM (Staphylococcus aureus [4]): 60% |
| O=C(O)c1cn(C2CC2)c2cc(N3CCNCC3)c(F)cc2c1=O [CIPROFLOXACIN] | 0.038 µM | 125 µM | – | – |
| COc1c(Br)cc(/C=C/C(=O)NCCCNCCCCNCCCN)cc1Br [IANTHELLIFORMISAMINE A] | 6.8 µM | – | 35 µM (≈ 18.2 µg/mL) | inhibition at 175 µM (Staphylococcus aureus [7]): 77% |
| COc1c(Br)cc(/C=C/C(=O)NCCCNCCCCN)cc1Br [IANTHELLIFORMISAMINE B] | – | – | – | inhibition at 87.5 µM (Pseudomonas aeruginosa [8]): 80% |
| COc1c(Br)cc(/C=C/C(=O)NCCCNCCCCNCCCNC(=O)/C=C/c2cc(Br)c(OC)c(Br)c2)cc1Br [IANTHELLIFORMISAMINE C] | 8.9 µM | 4.1 µM | 17.5 µM (≈ 14.7 µg/mL) | MIC (Staphylococcus aureus [6]): 8.75 µM (≈ 7.33 µg/mL) |
